US20110223221A1, “STABILIZATION PROCESSES OF CATION RADICALS OF PHENOTHIAZINIC COMPOUNDS, COSMECEUTICAL FORMULATIONS AND METHODS FOR SKIN DISEASES AND DISTURBANCES PREVENTION” (priority 2008, published 2011)

Experiments:
[1] = Absorption bands of the cationic radicals; type: physicochemical; conditions: pre-micellic aggregates and micelles
[2] = biological target: methionine 80 of cytochrome c (Homo sapiens, UniProt P99999); test: Photooxidation of model protein cytochrome c under UV irradiation, measured by dislocation to the blue of the Soret band; type: biochemical; conditions: for initial rate of dislocation to the blue of the Soret band: pH=4.0, 120 min UV (without drug 0.42); for effect on damage to cytochrome c: stabilized cation radicals 25 μM
Sequence of methionine 80 of cytochrome c (Homo sapiens, UniProt P99999) (P99999 whole entry): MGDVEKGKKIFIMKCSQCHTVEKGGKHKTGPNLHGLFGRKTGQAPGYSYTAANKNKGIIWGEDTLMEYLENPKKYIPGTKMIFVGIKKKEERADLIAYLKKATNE
Protocol: (§1) It was analyzed the effect of the concentration of the phenothiazine derived compounds of the present invention TR (graph A, FIG. 2) and TFP (graph B, FIG. 2), on the photooxidation of the model protein (methionine 80 of cytochrome c), measured by the degree of deviation to the blue of the Soret band.
(§2) The white circle, in A and B, represents the damage caused to the protein after two hours of irradiation under UV light at 254 nm, at temperature of 25° C., at pH 4.
(§3) The effect of the media pH on the initial velocity of oxidation of methionine 80 of cytochrome c was analyzed at an UV irradiation of 254 nm, during 120 min, in the absence and in the presence of the stabilized cation radicals of TR, TFP and FP (FIG. 3). In the presence of the stabilized cation radicals of TR, TFP and FP, de concentration range of 5 to 2500 μM for pH 4.0 and the concentration range of 25 to 2500 μM for the pH range of 3.0 to 7.0 were used.
(§4) Samples containing cytochrome c 3 μM and TR 25 μM were irradiated at 254 nm, in phosphate buffer 5 mM, pH=4.0, at […]., in a cuvette, at 4 cm from a UV lamp of 4 W. The spectrum of cytochrome c and of phenothiazine were obtained before the irradiation (fine solid line of FIG. 4) and after 60 and 120 min of irradiation (dotted line and thick solid line, respectively, of FIG. 4). The spectrum shown in the curves corresponds to the overlapping spectrum changes of the phenothiazines detected during the same indicated time points.
(§5) The experiment described in the Example 4 was repeated for different concentrations of phenothiazines. The initial rate of dislocation to the blue of the Soret band was defined regarding the concentration of phenothiazine.
(§6) The irradiation of the cytochrome c was performed during 120 min, pH=4.0 and under UV lamp of 4 W, which led to the dislocation to the blue of the Soret band from 409 to 406 nm, with initial rate of 0.42 ms^−1 (open circle, FIG. 5).
(§7) Irradiation of the cytochrome c 3 μM was performed, for a pH variation range from 3.0 to 7.0. In this pH range, the phenothiazine remained predominately protonated due to its pKa of 8.1. […] In the said pH range, the initial rate of dislocation to the blue of the Soret band was determined, after 120 min of UV irradiation, in the presence and in the absence of TR (FIG. 6).

[3] = UV light transmittance in a quartz plate (Australian Method); type: physicochemical; conditions: solution of 2.0 mg/cm^2 in a quartz plate, 320 to 360 nm
Protocol: In order to analyze the transmittance of UV light in the wavelength of 320 to 360 nm, solutions of 2.0 mg/cm^2 of the phenothiazines TR, TFP and FP were used in a quartz plate.
As it can be observed, in these conditions, TR, TFP and FP block the passage of almost 100% of UV light incidence (FIG. 1). This evaluation was obtained based on the Australian Method (Perassinoto, N. L., Journal In Comesto, VII Ed., 2006), which was elected the most adequate, because it considers the ε of UVA region of absorption. The other methods are based in the 320 and 360 nm absorption ratio and can generate false negative results. According to the Australian Method, it will be a good sunscreen the compound that blocks 90% of UVA light incidence. In the case of the said cation radicals of the phenothiazines of the present invention, the blockage was of 99.99%.
A solution of 2.0 mg of drug/cm^2 was submitted to an analytical assay in a quartz plate, in the wavelength range from 320 to 360 nm, in order to verify the area of UV light transmittance (FIG. 7).
This evaluation was performed based in the Australian Method (Perassinoto, N. L.; Journal In Comesto; VII edition; p. 06; 2006), which was elected the most adequate, because it considers the ε of UVA region of absorption. The other methods are based in the 360 and 320 nm absorption ratio and can generate false negative results. According to the Australian Method, it will be a good sunscreen the compound that blocks 90% of UVA light incidence.

[4] = test system: methionine 80 of cytochrome c; test: Photooxidation of model protein cytochrome c under UV irradiation, measured by dislocation to the blue of the Soret band; type: biochemical; conditions: pH=4.0, 120 min UV (without drug 406 nm)
Sequence of methionine 80 of cytochrome c (P99999 whole entry): as above
Protocol: as §1, §2, §3, §4, §5, §6, §7

[5] = two hours UV 254 nm, 25° C., pH 4

SMILES	absorption band of the cationic radical [1] [nm]	concentration up to which increasing drug exacerbated the damage (maximum damage) [2, 5] [µM]	blockage of the passage of UV light incidence [3] [%]	Soret band after irradiation ([4]; drug 25 μM) [nm]	Soret band after irradiation ([4]; drug 2500 μM) [nm]	effect on rate of dislocation to the blue of the Soret band ([2]; 25 μM, pH range from 5.0 to 7.0, 120 min UV)	increase of the initial rate of dislocation to the blue ([2]; 25 μM, pH=3.0) [%]	increase of the initial rate of dislocation to the blue ([2]; 25 μM, pH=4.0) [%]	effect on dislocation rate to the blue ([2]; drug 5 μM, pH=4.0, 120 min UV)	initial rate of dislocation to the blue of the Soret band ([2]; drug 25 μM) [ms^−1]	initial rate of dislocation to the blue of the Soret band ([2]; drug 2500 μM) [ms^−1]	reduction of the initial rate of dislocation to the blue of the Soret band ([2]; high concentrations, pH=4.0)	effect on damage to cytochrome c ([2]; pH range from 5.0 to 3.0)	effect on damage to cytochrome c ([2]; pH range from 5.0 to 7.0)	effect on photooxidation damage of cytochrome c at very low concentrations [2, 5]
OCCN1CCN(CCCN2c3ccccc3Sc3ccc(C(F)(F)F)cc32)CC1 [FP, 2-[4-[3-[2-(trifluoromethyl)-10H-phenothiazin-10-yl]propyl]piperazin-1-yl]ethanol]	520	10	~100	–	–	–	–	–	–	–	–	–	–	–	–
CSc1ccc2c(c1)N(CCC1CCCCN1C)c1ccccc1S2 (stereo not drawn) [TR, 10-[2-(1-methyl-2-piperidyl)ethyl]-2-methylsulfanyl-phenothiazine]	615	25	~100	405	407	slight reduction	250	~50	discrete reduction	0.6	0.23	around 50%	progressively increased the damage	slightly protected	slight protection
CN1CCN(CCCN2c3ccccc3Sc3ccc(C(F)(F)F)cc32)CC1 [TFP, 10-[3-(4-methylpiperazin-1-yl)propyl]-2-(trifluoromethyl)-10H-phenothiazine]	520	–	~100	–	–	–	–	–	–	–	–	–	–	–	–
c1ccc2c(c1)Nc1ccccc1S2 [PHT, 10H-phenothiazine]	–	–	~100	–	–	–	–	–	–	–	–	–	–	–	–
